As for `COC(C)C(=O)Nc1c(C(=O)c2ccccc2)[nH]c2cc(Cl)ccc12` (stereo not drawn), the melting point is 169 to 171 °C.

In turn, `O=C1c2ccccc2C(O)N1CCCBr` (stereo not drawn) returned a melting point of 79 °C.

`CC(C)COC(=O)Nc1cccc(Cn2ccc3cc(C(=O)O)ccc32)c1` came in with a melting point of 173 to 176 °C.

`CCOC(=O)c1c(C)nc(-c2ccccc2)nc1-c1cccc(C(F)(F)F)c1` had a melting point of 59 to 60 °C.

Consider `CCNC=C(C(=O)C=Cc1ccc(N(C)C)cc1)C(=O)OC`, for which the melting point is 129 to 130 °C.

As for `Cc1ccc(S(=O)(=O)n2ccc3c(-c4c(-c5ccc(F)cc5)nc5ccc(N6CCN[C@H](C)C6)nn45)ccnc32)cc1`, the melting point fell in the range of 253 to 256 °C.

`Clc1ccc(N=c2ssnc2Cl)cc1Cl` showed a melting point of 89 to 90 °C.

`COc1ccc(N2CC(=O)NC(=O)N2)cc1C` returned a melting point of 69 to 71 °C.

The compound `CC(C)c1c(Cl)[nH]c(=O)[nH]c1=O` displayed a melting point of 250 to 251 °C.

With `Cc1cc(OCCOc2ccc3ccccc3c2)ccc1C(=O)C(=O)O`, the melting point lay within 129 to 131 °C.

Regarding `CNC(=O)COc1ccc2c(-c3ccccc3F)noc2c1Cl`, the melting point amounted to 164 °C.

`Cc1ccnc(C(=O)c2[nH]c3cc(Cl)ccc3c2NC(=O)C(C)(C)O)c1` showed a melting point of 217 to 219 °C.

In the case of `O=C(O)C1CCC(c2cc3cccnc3c(=O)[nH]2)CC1` (stereo not drawn), the melting point was above 270 °C.

With `N[C@@H](CSCCC1CCN(C(=O)OCc2ccccc2)CC1)C(=O)O`, the melting point lay in the range of 185 to 188 °C.

`COc1cc(C)nc(-n2cccn2)n1` yielded a melting point of 52.5 to 53 °C.

The compound `Cc1ccc(CN2CCN(C3=NC4(C=CC(=O)C(Cl)=C4)C(c4ccccc4)=C3)CC2)cc1` (stereo not drawn) gave a melting point of 161 °C.

Turning to `CN1C=C(C(=O)Nc2ccccc2)C(C(F)(F)F)N1CO` (stereo not drawn), the melting point came to 191 °C.

In the case of `CCCCCCCCCCCCCCC(=O)C(=O)N[C@@H](CCCC)C(=O)NCC(=O)OC(C)(C)C`, the melting point fell in the range of 38 to 39 °C.

As to `CN(Cc1cc(C(F)(F)F)cc(C(F)(F)F)c1)C(=O)c1nc(N2CCOCC2)ncc1-c1ccccc1`, the melting point lay within 154 to 155 °C.

As for `Cn1nc(Br)c([N+](=O)[O-])c1Br`, the melting point was 154 °C.

In turn, `CS(=O)(=O)Nn1c(=O)[nH]c2cc(C(F)(F)F)c(-n3cnc(C#N)c3)cc2c1=O` displayed a melting point of 143 to 145 °C.

`COc1ccnc(CS(=O)c2nc3cc(Cl)c(Cl)cc3[nH]2)c1C` (stereo not drawn) came in with a melting point of 173 °C.

The compound `O=S(=O)(c1ccc(Cl)cc1)C1(c2cccnc2Cl)CCCCC1` displayed a melting point of 129 to 131 °C.

On to `NC(=O)NN=Cc1ccc(OC2CCCCC2)cc1`, for which the melting point fell in the range of 215 to 217 °C.

On to `CC1=C(C(=O)N(c2ccccc2)C2CCCCCC(F)C2)CCO1` (stereo not drawn), for which the melting point worked out at 91 °C.

As for `CCOC(=O)c1cn(C2CC2)c2c(C#N)c(N3C[C@@H]4CCCN[C@@H]4C3)c(F)cc2c1=O`, the melting point fell in the range of 209 to 210 °C.

For `C#Cc1cnc2c(C)cc(OC(SC)C(=O)NC(C)(C#C)COC)cc2c1` (stereo not drawn), the melting point lay in the range of 108 to 109 °C.

In turn, `CCCNC(=O)N1CC(Oc2ccc(C(F)(F)F)cc2)C1` displayed a melting point of 119 to 120 °C.

Turning to `O=c1[nH]c2ccc(N3CCOCC3)cc2c(=O)o1`, the melting point was found to be 235 °C.

`CON=C1CCC(N(C)C(=O)c2ccc3nonc3c2)CC1` (stereo not drawn) gave a melting point of 167 to 168 °C.

The compound `CCN(CC)C(=O)c1ccc2ccccc2c1-c1ccc(C)cc1` displayed a melting point of 181 to 183 °C.

In turn, `Cc1cc(-c2nc3cccnn3c2-c2ccnc(NC(=O)c3ccccn3)c2)ccc1F` displayed a melting point of 234 to 235 °C.

The compound `CC(O)(C(=O)Nc1ccc(S(=O)(=O)N2CCCCC2)cc1)C(F)(F)F` (stereo not drawn) yielded a melting point of 164 to 166 °C.

Consider `COC(=O)N[C@@H]1CCc2ccc(Br)cc2C1=O`, for which the melting point was in the range of 111 to 112 °C.

With `COC(=O)C(O)=Cc1ncc(Cc2ccc(F)cc2)cn1`, the melting point was 132 to 134 °C.

Take `Cc1nn(-c2cccnc2)cc1[N+](=O)[O-]`: the melting point fell in the range of 122 to 124 °C.

As for `O=C(NNC(=O)C(F)(F)F)C(F)(F)F`, the melting point fell in the range of 173 to 175 °C.

The compound `Cc1cccc(-c2coc3c(O)c(O)ccc3c2=O)c1` displayed a melting point of 268 °C.

`COC(=O)c1ccc(C=Cc2nc3ccccc3s2)cc1`: the melting point is 168 to 169 °C.

`COc1cc(C(=O)Nc2ccc3c(c2)CCN(C)C3)cc(OC)c1OC` registered a melting point of 234 to 235 °C.

Regarding `CCN1CCN(c2ccc(Nc3cc(-c4cnc5cc[nH]c5c4)cn4ccnc34)nc2)CC1`, the melting point fell in the range of 227 to 230 °C.

`COc1cccc2c1Sc1ccc(C(C)C(=O)O)cc1C(=O)C2` (stereo not drawn): the melting point is 176 to 178 °C.

As to `COC(=O)c1ccc(/C=C\[C@@H]2C[C@@H](NS(=O)(=O)c3ccc(Cl)cc3)CN2)cc1`, the melting point fell in the range of 189 to 190 °C.

`C[C@@](O)(CO)COc1ccc(Br)cc1` had a melting point of 90 °C.

For the compound `CCCCCC(=O)Nc1nc2c(ncn2CCC(CO)CO)c(=O)[nH]1`, the melting point was 86 to 88 °C.

`COc1cc2ncc(C#N)c(Nc3ccc(Cl)c(C(F)(F)F)c3)c2cc1OC` gave a melting point of 265 to 267 °C.

`CCCCCCc1cc(SC)ccc1O`: the melting point lay within 42 to 44 °C.

`CN(C)CCCNCC(O)C(O)C(O)C(O)CO` (stereo not drawn) gave a melting point of 107 to 108 °C.

`CC(=O)N1CCC2(CC1)CC(=O)c1c(O)cccc1O2`: the melting point fell in the range of 114 to 116 °C.

In the case of `CCCCS(=O)(=O)c1ccc(NN)cc1`, the melting point came to 138 °C.

In turn, `Nc1csc(-c2cc3c(Oc4ccc(Cl)cc4)cncc3s2)n1` returned a melting point of 168 to 170 °C.

Consider `O=C1C(=Cc2ccc(Cl)cc2)CC23OC2C=CC=C13` (stereo not drawn), for which the melting point lay in the range of 162 to 164 °C.

Regarding `CCOC(=O)CC(NC(=O)c1ccccc1)C(=O)c1ccsc1` (stereo not drawn), the melting point was in the range of 62 to 63 °C.

`Cc1ccc(-c2ncc(O)nc2-c2ccc(C)cc2)cc1` came in with a melting point of 250 to 254 °C.

Take `COc1ccc(CCc2ccc(-c3ccc(OC(F)F)cc3)cc2)cc1`: the melting point came out at 153 °C.

In turn, `O=C(O)C(=O)c1ccc(OCCOC2CCCCC2)cc1` displayed a melting point of 96 to 98 °C.

`COc1cc(-c2ccc(C#N)cc2)cc(C=O)c1O` yielded a melting point of 177 to 178 °C.

The compound `Fc1cc2c(-c3cccs3)c(CBr)cnc2c(F)c1F` yielded a melting point of 98 to 100 °C.

As for `CCOC(=O)N1CCN(c2cc3ccccc3c(=O)[nH]2)CC1`, the melting point is 191 to 192 °C.

In the case of `COc1cccc(Oc2ccc3ccc(-c4cc(OC)ccc4C(N)=O)nc3n2)c1`, the melting point is 150 °C.

As to `OCc1ccccc1CCc1ccc(Br)cc1`, the melting point fell in the range of 72 to 75.5 °C.

In turn, `CCOc1nn(-c2ccc(C(F)(F)F)cn2)cc1CCCOc1ccc(OC(C)(C)C(=O)O)cc1` displayed a melting point of 91 to 92 °C.

`COc1ccc(C=CC2=NN(C(C)=O)C(C)Cc3cc(OC)c(OC)cc32)c(OC)c1` (stereo not drawn) displayed a melting point of 85 to 87 °C.

On to `Cc1c(NC(=O)c2cc3c(s2)C(O)CCC3)cccc1-c1cn(C)c(=O)c(Nc2ccc(C3C(=O)N(C)CCN3C)cc2)n1` (stereo not drawn), for which the melting point lay in the range of 165 to 166 °C.

`COc1cccc2c1nc(C(F)F)n2-c1nc(Nc2cccnn2)nc(N2CCOCC2)n1` returned a melting point of 261 to 263 °C.

For the compound `CCc1cccc2c1S(=O)(=O)c1ccccc1O2`, the melting point lay within 101 to 103 °C.

The compound `NC(=O)N1CCC[C@@H]1C#CCN1CCCC1` returned a melting point of 117 to 122 °C.

On to `O=c1cc(-c2ccccc2)oc2cc(OCC3CO3)ccc12` (stereo not drawn), for which the melting point lay within 123 to 130 °C.

Turning to `CC1Oc2c(cc(CN3CCN(c4ccc(C(=O)NC5CC5)cc4)CC3)cc2C2CC2)NC1=O` (stereo not drawn), the melting point lay in the range of 202 to 207 °C.

`Cc1ccc(Cl)c(Nc2ccccc2-c2n[nH]c(=S)s2)c1Cl` came in with a melting point of 250 to 252 °C.

`CC1(C)Oc2cc(Br)sc2C(N2CCCCC2=O)C1O` (stereo not drawn): the melting point was 200 to 202 °C.

Regarding `NC(CCC(=O)O)c1cccs1` (stereo not drawn), the melting point lay within 148 to 156 °C.

The compound `COc1cc(-c2ccc3cc4c(cc3c2C=O)OCO4)c([N+](=O)[O-])cc1OC` registered a melting point of 225 °C.

The compound `C=CCOc1ccccc1C1C(C(=O)OCC)=C(C)NC(C#N)=C1C(=O)OCC` (stereo not drawn) showed a melting point of 143 to 145 °C.

`CC(=O)OC1CC2C3CCC(C(C)CCCC(C)C)C3(C)CCC2C2(C)CC(F)C(=O)CC12` (stereo not drawn) showed a melting point of 153 to 156 °C.

Regarding `CCOc1cc(C=[N+]([O-])C2CCCCC2)ccc1OC`, the melting point stood at 114 °C.

`Cn1c(=O)c(N=C=O)c(-c2ccccc2Cl)c2cc(Cl)ccc21`: the melting point was in the range of 204 to 206 °C.

With `Cc1ccc(S(=O)(=O)OCC2COC(C(F)(F)F)(C(F)(F)F)O2)cc1` (stereo not drawn), the melting point is 57 to 58.5 °C.

The compound `O=C1Nc2ccccc2N2CCc3cc(Cl)cc1c32` showed a melting point of 232 to 233 °C.

Regarding `CNC(=O)C(=C/c1ccccc1)/C(=C\c1cc(OC)c(OC)c(OC)c1)C(=O)OC`, the melting point lay in the range of 155 to 157 °C.

With `O=C(NCCO)C1(c2cccc3nn(Cc4cccc(C(F)(F)F)c4)cc23)C=CC=CN1` (stereo not drawn), the melting point fell in the range of 50 to 51 °C.

`O=C1c2c(-c3ccccc3)noc2CCC1CN1CCOCC1` (stereo not drawn): the melting point was 140 to 141 °C.

In turn, `O=C(Nc1cccc2c1C1CCCCN1C2=O)Nc1ncccc1Br` (stereo not drawn) yielded a melting point of 220 °C.

`O=C(Nc1ccc2c(c1)nc1n2CCC1)c1cc2nc(C(F)(F)F)ccc2n1Cc1ccncc1`: the melting point fell in the range of 130 to 131 °C.

`O=C(NC1CC1)c1ccc(N2CCNCC2)cc1` yielded a melting point of 175 to 177 °C.

Compound `Cc1[nH]c(C(C)(C)C)nc1CO` displayed a melting point of 196 °C.

In the case of `O=C(O)CCC(=O)c1ccc(Oc2ccc(NC(=O)c3ccc(Cl)c(Cl)c3)cc2F)cc1`, the melting point is 205 to 208 °C.

In the case of `COC(=O)CCCc1cc2nc(Cl)ccc2n1S(=O)(=O)c1ccc(C)cc1`, the melting point is 106 °C.

The compound `O=C(O)c1cc(F)c(F)cc1NC1CC1` registered a melting point of 175 to 176 °C.

Take `O=C1NCN(c2ccccc2)C12CCN(CC(O)COc1ccc(F)cc1)CC2` (stereo not drawn): the melting point was in the range of 152 to 154 °C.

The compound `CCOC1c2ccccc2-c2[nH]c(=O)c(=O)[nH]c21` (stereo not drawn) gave a melting point above 300 °C.

Compound `O=c1ccc2c(-c3ccccc3)nccc2[nH]1` came in with a melting point of 261 to 263 °C.

Compound `Oc1ccc(Br)c2c1CCCC2` came in with a melting point of 83 to 85 °C.

By melting point is commonly meant the temperature, or range, at which the solid turns liquid.

Values taken from a melting point compilation (Tetko et al.; mined from patent text by program, amines drawn as free bases though some values may be those of a salt).
